# Key:
# [1] = target: T1, human sodium channels Nav 1.7 (Homo sapiens, UniProt Q15858); assay: Automated whole-cell voltage-clamp (ScreenPatch 384P) sodium current block, Nav 1.7; format: cell-based; conditions: CHO cells stably expressing human Nav 1.7; inactivation step -40 mV 8 s, test step 0 mV (TP1A); eight concentrations; exposure at least five minutes; room temperature; read-out: Nav1.7 IC50
# T1 construct: expressed in transfected cells
# Protocol: (§1) Biological assays were performed on Chinese hamster ovary (CHO) cells that express human sodium channels Nav 1.8 or Nav 1.7 in a stable manner.
# (§2) The experimental protocol voltage-clamp using the whole cell configuration was established on the automated ScreenPatch® 384P platform (SP384PE, Nanion Technologies, Livingston, NJ) and the results were recorded with a Nanion 384-well Patch Clamp chip (NPC) (Nanion Technologies, Livingston, NJ).
# (§3) Formula I compounds were diluted in eight concentrations in the extracellular solution composed of saline solution, buffered with HEPES (mM): NaCl, 137; KCl, 4; CaCl2, 3,8; MgCl2, 1; HEPES, 10; Glucose, 10; pH 7.4. The […], 50; CsF, 90; MgCl2, 5; EGTA, 5; HEPES, 10; pH 7.2. The duration of exposure of each compound with cells expressing Nav 1.7 or Nav 1.8 was at least five minutes and the assays were performed at room temperature.
# (§4) The measurements of the sodium currents of Nav 1.8 and Nav 1.7 were obtained using the voltage protocol described below.
# (§5) A holding voltage of -100 mV was established followed by an inactivation voltage step at -40 mV for 8 seconds, followed by a step of -100 mV for 20 ms, followed by a 20 ms step for 10 mV for Nav 1.8 or 0 mV for Nav 1.7 (TP1A) before returning to the holding voltage of -100 mV.
# (§6) The protocol was repeated at a frequency of 0.05 Hz and the amplitude of the current was quantified throughout the recording of the TP1A phase. The variation in the amplitude of the peak current was evaluated according to the formula described below, after exposing the cells expressing the channels to each concentration of the different compounds: % Block = (1−(ITP1A,molecule/ITP1A,basal)×100%, [formula] wherein ITP1A,basal and ITP1A,molecule represent the peaks of sodium current input into TP1A before exposure to the compound and in the presence of the compound, respectively.
# (§7) Data were obtained by nonlinear regression (nonlinear least squares) with XLfit for Excel (Microsoft, Redmond, WA).
# (§8) The compounds were tested in at least one assay to obtain the value of CI50. For compounds that were tested in two or more assays, the results are described as the means of the CI50 values.
# [2] = target: T2, human sodium channels Nav 1.8 (Homo sapiens, UniProt Q9Y5Y9); assay: Automated whole-cell voltage-clamp (ScreenPatch 384P) sodium current block, Nav 1.8; format: cell-based; conditions: CHO cells stably expressing human Nav 1.8; inactivation step -40 mV 8 s, test step 10 mV (TP1A); eight concentrations; exposure at least five minutes; room temperature; read-out: Nav1.8 IC50
# T2 construct: expressed in transfected cells
# T2 sequence (Q9Y5Y9 whole entry): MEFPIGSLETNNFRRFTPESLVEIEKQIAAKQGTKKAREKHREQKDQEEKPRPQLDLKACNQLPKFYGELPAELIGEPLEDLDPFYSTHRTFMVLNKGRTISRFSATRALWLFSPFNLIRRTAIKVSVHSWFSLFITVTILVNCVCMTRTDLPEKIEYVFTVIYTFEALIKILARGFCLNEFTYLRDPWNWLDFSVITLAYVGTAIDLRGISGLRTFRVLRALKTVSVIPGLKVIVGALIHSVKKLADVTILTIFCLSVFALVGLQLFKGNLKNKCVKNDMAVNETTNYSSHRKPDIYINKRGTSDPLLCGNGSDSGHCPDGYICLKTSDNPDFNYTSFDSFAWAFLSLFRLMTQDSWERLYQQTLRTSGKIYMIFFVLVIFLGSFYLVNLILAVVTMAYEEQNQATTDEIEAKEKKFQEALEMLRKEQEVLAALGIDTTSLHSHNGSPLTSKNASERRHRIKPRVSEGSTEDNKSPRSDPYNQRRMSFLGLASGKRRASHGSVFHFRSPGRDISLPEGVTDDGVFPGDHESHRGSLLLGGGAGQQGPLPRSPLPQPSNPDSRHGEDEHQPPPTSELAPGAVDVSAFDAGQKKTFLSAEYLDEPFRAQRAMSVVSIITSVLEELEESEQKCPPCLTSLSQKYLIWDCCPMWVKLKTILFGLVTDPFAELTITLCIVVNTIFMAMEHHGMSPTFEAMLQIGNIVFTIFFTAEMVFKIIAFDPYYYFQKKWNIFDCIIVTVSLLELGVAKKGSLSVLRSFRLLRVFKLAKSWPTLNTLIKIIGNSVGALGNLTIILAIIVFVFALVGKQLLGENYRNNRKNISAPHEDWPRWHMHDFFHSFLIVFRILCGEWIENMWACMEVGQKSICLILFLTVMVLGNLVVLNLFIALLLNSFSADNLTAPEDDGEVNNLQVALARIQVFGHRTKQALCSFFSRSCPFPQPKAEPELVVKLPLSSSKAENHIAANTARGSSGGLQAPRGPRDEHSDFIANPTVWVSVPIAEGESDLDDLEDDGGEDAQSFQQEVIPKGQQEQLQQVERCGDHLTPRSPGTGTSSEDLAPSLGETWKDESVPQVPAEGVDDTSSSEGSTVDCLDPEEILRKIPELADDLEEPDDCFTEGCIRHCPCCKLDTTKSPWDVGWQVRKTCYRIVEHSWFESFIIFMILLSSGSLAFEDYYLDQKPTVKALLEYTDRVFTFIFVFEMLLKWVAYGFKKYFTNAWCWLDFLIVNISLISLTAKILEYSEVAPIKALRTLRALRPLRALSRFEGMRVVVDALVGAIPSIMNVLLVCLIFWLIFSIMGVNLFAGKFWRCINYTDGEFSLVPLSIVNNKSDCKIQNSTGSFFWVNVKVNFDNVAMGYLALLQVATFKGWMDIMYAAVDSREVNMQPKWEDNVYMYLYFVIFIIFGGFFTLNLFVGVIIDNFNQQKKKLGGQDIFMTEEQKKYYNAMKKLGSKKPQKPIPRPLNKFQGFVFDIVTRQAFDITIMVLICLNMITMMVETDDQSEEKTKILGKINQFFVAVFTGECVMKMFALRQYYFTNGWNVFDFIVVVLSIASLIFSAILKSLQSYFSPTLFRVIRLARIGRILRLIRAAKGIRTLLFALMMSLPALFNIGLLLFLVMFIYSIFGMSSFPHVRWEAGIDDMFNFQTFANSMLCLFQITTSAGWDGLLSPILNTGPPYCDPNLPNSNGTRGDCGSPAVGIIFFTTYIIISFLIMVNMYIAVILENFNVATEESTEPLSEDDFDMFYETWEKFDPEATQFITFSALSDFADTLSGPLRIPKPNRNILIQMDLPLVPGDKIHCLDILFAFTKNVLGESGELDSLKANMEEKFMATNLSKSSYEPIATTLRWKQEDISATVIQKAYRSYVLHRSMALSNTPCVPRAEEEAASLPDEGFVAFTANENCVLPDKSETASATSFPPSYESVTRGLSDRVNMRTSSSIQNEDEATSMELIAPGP
# Protocol: as §1, §2, §3, §4, §5, §6, §7, §8
# T1 sequence (Q15858 whole entry): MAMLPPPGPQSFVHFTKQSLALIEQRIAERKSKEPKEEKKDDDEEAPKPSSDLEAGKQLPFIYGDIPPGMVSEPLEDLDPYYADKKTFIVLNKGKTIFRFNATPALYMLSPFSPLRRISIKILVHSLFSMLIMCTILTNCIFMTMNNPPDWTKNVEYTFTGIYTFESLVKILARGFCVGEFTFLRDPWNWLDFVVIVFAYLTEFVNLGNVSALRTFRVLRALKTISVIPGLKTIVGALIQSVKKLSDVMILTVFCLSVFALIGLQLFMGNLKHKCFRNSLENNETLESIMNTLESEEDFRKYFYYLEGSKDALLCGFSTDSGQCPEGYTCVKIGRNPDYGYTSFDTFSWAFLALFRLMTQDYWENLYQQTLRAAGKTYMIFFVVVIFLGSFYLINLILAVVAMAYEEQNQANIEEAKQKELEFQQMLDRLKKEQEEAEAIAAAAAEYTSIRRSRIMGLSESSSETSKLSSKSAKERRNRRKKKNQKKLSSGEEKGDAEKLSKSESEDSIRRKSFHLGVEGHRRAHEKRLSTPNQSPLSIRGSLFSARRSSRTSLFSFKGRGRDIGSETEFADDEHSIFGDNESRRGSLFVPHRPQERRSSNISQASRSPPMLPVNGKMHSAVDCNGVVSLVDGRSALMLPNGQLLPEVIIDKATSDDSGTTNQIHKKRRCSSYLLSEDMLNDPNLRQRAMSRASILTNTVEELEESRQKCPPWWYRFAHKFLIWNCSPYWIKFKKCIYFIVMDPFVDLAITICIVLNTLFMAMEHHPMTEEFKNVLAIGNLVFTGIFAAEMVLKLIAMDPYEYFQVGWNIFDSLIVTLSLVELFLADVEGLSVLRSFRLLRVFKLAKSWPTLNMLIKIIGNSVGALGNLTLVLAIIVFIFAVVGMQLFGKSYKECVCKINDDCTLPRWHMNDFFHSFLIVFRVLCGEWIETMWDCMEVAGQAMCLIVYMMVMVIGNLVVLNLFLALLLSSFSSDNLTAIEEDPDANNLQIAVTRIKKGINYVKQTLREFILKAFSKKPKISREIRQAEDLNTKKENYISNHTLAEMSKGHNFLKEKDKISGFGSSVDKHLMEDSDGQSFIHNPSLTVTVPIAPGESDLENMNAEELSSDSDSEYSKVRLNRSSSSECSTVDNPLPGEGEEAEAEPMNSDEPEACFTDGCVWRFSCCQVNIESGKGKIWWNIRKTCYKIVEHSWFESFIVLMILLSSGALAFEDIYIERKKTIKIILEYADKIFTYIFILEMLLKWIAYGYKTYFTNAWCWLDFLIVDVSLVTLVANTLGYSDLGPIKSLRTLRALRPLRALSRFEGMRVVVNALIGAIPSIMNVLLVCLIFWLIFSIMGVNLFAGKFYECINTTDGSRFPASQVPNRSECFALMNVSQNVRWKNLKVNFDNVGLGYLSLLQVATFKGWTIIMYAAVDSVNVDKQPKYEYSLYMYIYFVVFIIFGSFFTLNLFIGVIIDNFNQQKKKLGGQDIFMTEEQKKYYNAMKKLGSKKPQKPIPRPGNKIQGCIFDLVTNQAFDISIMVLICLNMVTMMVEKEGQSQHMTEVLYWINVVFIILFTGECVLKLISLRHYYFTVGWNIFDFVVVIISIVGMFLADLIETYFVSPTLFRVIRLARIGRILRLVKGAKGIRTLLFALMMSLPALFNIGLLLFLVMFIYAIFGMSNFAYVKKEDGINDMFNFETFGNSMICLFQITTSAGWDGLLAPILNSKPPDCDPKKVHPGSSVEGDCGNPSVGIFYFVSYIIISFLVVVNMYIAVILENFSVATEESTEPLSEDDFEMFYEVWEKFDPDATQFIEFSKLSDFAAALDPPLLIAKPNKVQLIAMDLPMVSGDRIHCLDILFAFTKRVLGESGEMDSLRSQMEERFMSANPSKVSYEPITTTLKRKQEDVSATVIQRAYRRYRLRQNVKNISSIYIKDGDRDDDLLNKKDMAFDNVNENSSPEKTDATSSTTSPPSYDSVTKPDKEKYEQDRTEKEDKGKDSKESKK
IC50 [1] [nM],IC50 [2] [nM],Compound
> 1000,> 1000,"COc1ccc(F)c(/C=N/NC(=O)c2cncc(-c3ccc(OCCO)nc3)n2)c1 [Compound 137, (E)-N'-(2-fluoro-5-methoxybenzylidene)-6-(6-(2-hydroxyethoxy)pyridine-3-yl)pyrazine-2-carbohydrazide]"
> 1000,< 500,"[2H]C([2H])([2H])COc1ccc(-c2cncc(C(=O)N/N=C/c3cc(OC)cnc3F)n2)cn1 [Compound 168, (E)-6-(6-(ethoxy-2,2,2-d3)pyridine-3-yl)-N'-((2-fluoro-5-methoxypyridine-3-yl)methylene)pyrazine-2-carbohydrazide]"
< 500,< 500,"COc1cnc(F)c(/C=N/NC(=O)c2cncc(-c3cnc(OC(F)F)cc3C)n2)c1 [Compound 160, (E)-6-(6-(difluoromethoxy)-4-methylpyridine-3-yl)-N'-((2-fluoro-5-methoxypyridine-3-yl)methylene)pyrazine-2-carbohydrazide]"
> 1000,> 1000,"COc1ccc(F)c(/C=N/NC(=O)c2cncc(-c3ccc(S(N)(=O)=O)nc3)n2)c1 [Compound 133, (E)-5-(6-(2-(2-fluoro-5-methoxybenzylidene)hydrazine-1-carbonyl)pyrazine-2-yl)pyridine-2-sulfonamide]"
> 1000,> 1000,"COc1cnc(O)c(/C=N/NC(=O)c2cncc(-c3ccc(OC(F)F)nc3)n2)c1 [Compound 117, (E)-6-(6-(difluoromethoxy)pyridine-3-yl)-N'-((2-hydroxy-5-methoxypyridine-3-yl)methylene)pyrazine-2-carbohydrazide]"
> 1000,> 1000,"COc1ccc(F)c(/C=N/NC(=O)c2cncc(-c3ccc(OC4CNC4)nc3)n2)c1 [Compound 139, (E)-6-(6-(azetidin-3-yloxy)pyridine-3-yl)-N'-(2-fluoro-5-methoxybenzylidene) pyrazine-2-carbohydrazide]"
> 1000,> 1000,"CNS(=O)(=O)c1ccc(-c2cncc(C(=O)N/N=C/c3cc(OC)ccc3F)n2)cn1 [Compound 134, (E)-5-(6-(2-(2-fluoro-5-methoxybenzylidene)hydrazine-1-carbonyl)pyrazine-2-yl)-N-methylpyridine-2-sulfonamide]"
> 1000,> 1000,"COc1ccc(F)c(/C=N/NC(=O)c2cncc(-c3ccc(OCCC4CN(C)C4)nc3)n2)c1 [Compound 147, (E)-N'-(2-fluoro-5-methoxybenzylidene)-6-(6-(2-(1-methylazetidine-3-yl)ethoxy)pyridine-3-yl)pyrazine-2-carbohydrazide]"

# The next lines start with the compound.
Compound,IC50 [1] [nM],IC50 [2] [nM]
"Cc1ccccc1/C=N/NC(=O)c1cncc(-c2ccc(OC(F)(F)F)nc2)n1 [Compound 88, (E)-N'-(2-methylbenzylidene)-6-(6-(trifluoromethoxy)pyridine-3-yl)pyrazine-2-carbohydrazide]",< 500,< 500
"CCOc1ccc(-c2cncc(C(=O)N/N=C/c3cc(C(C)O)ccc3F)n2)cn1 (stereo not shown) [Compound 23, (E)-6-(6-ethoxypyridine-3-yl)-N'-(2-fluoro-5-(1-hydroxyethyl)benzylidene)pyrazine-2-carbohydrazide]",> 1000,< 500
"CCOc1ccc(-c2cncc(C(=O)N/N=C/c3cc(OC)ncc3F)n2)cn1 [Compound 8, (E)-6-(6-ethoxypyridine-3-yl)-N'-((5-fluoro-2-methoxypyridine-4-yl)methylene)pyrazine-2-carbohydrazide]",> 1000,500 to 1000
"CCOc1ccc(-c2cncc(C(=O)N/N=C/c3occc3OC)n2)cn1 [Compound 55, (E)-6-(6-ethoxypyridine-3-yl)-N'-((3-methoxyfuran-2-yl)methylene)pyrazine-2-carbohydrazide]",> 1000,> 1000
"COc1cnc(F)c(/C=N/NC(=O)c2nccc(-c3ccc(OC(F)F)nc3)n2)c1 [Compound 127, (E)-4-(6-(difluoromethoxy)pyridine-3-yl)-N'-((2-fluoro-5-methoxypyridine-3-yl)methylene)pyrimidine-2-carbohydrazide]",> 1000,500 to 1000
"CC(O)c1cccc(/C=N/NC(=O)c2cncc(-c3ccc(OC(F)F)nc3)n2)c1 (stereo not shown) [Compound 109, (E)-6-(6-(difluoromethoxy)pyridine-3-yl)-N'-(3-(1-hydroxyethyl)benzylidene) pyrazine-2-carbohydrazide]",> 1000,500 to 1000
"CCOc1ccc(F)c(/C=N/NC(=O)c2cncc(-c3ccc(OC4CC4)nc3)n2)c1 [Compound 80, (E)-6-(6-cyclopropoxypyridine-3-yl)-N'-(5-ethoxy-2-fluorobenzylidene)pyrazine-2-carbohydrazide]",> 1000,< 500
"CN(C)c1cnc(F)c(/C=N/NC(=O)c2cncc(-c3ccc(OC(F)F)nc3)n2)c1 [Compound 105, (E)-6-(6-(difluoromethoxy)pyridine-3-yl)-N'-((5-(dimethylamino)-2-fluoropyridine-3-yl)methylene)pyrazine-2-carbohydrazide]",> 1000,> 1000
"O=C(N/N=C/c1cccc(O)n1)c1cncc(-c2ccc(OC(F)F)nc2)n1 [Compound 115, (E)-6-(6-(difluoromethoxy)pyridine-3-yl)-N'-((6-hydroxypyridine-2-yl)methylene) pyrazine-2-carbohydrazide]",> 1000,> 1000
"COc1cnc(F)c(/C=N/NC(=O)c2cncc(-c3ccc(OC(F)(F)F)nc3)n2)c1 [Compound 95, (E)-N'-((2-fluoro-5-methoxypyridine-3-yl)methylene)-6-(6-(trifluoromethoxy)pyridine-3-yl)pyrazine-2-carbohydrazide]",> 1000,< 500
"CCOc1ccc(-c2nc(C(=O)N/N=C/c3cc(OC)ccc3F)cnc2N)cn1 [Compound 63, (E)-5-amino-6-(6-ethoxypyridine-3-yl)-N'-(2-fluoro-5-methoxybenzylidene) pyrazine-2-carbohydrazide]",> 1000,500 to 1000
"CCOc1ccc(-c2cncc(C(=O)N/N=C/c3cc(OC4CNC4)ccc3F)n2)cn1 [Compound 20, (E)-N'-(5-(azetidine-3-yloxy)-2-fluorobenzylidene)-6-(6-ethoxypyridine-3-yl)pyrazine-2-carbohydrazide]",> 1000,> 1000
"COc1ccc(F)c(/C=N/NC(=O)c2cncc(-c3ccc(OC4CC4)nc3)n2)c1 [Compound 77, (E)-6-(6-cyclopropoxypyridine-3-yl)-N'-(2-fluoro-5-methoxybenzylidene)pyrazine-2-carbohydrazide]",< 500,< 500
"CCOc1ccc(-c2nc(C(=O)N/N=C/c3cc(OC)cnc3F)cn(C)c2=O)cn1 [Compound 75, (E)-6-(6-ethoxypyridine-3-yl)-N'-((2-fluoro-5-methoxypyridine-3-yl)methylene)-4-methyl-5-oxo-4,5-dihydropyrazine-2-carbohydrazide]",> 1000,> 1000
"CCOc1ccc(-c2nc(C(=O)N/N=C/c3cc(OC)cnc3F)cnc2O)cn1 [Compound 67, (E)-6-(6-ethoxypyridine-3-yl)-N'-((2-fluoro-5-methoxypyridine-3-yl)methylene)-5-hydroxypyrazine-2-carbohydrazide]",> 1000,> 1000
"CCOc1ccc(-c2cncc(C(=O)N/N=C/c3cc(N4CC(O)C4)ccc3F)n2)cn1 [Compound 37, (E)-6-(6-ethoxypyridine-3-yl)-N'-(2-fluoro-5-(3-hydroxyazetidine-1-yl)benzylidene) pyrazine-2-carbohydrazide]",> 1000,> 1000
"COc1cnc(F)c(/C=N/NC(=O)c2ccnc(-c3ccc(OC(F)F)nc3)n2)c1 [Compound 126, (E)-2-(6-(difluoromethoxy)pyridine-3-yl)-N'-((2-fluoro-5-methoxypyridine-3-yl)methylene) pyrimidine-4-carbohydrazide]",> 1000,500 to 1000
"CCOc1ccc(-c2cncc(C(=O)N/N=C/c3cc(C(C)O)ccn3)n2)cn1 (stereo not shown) [Compound 31, (E)-6-(6-ethoxypyridine-3-yl)-N'-((4-(1-hydroxyethyl)pyridine-2-yl)methylene)pyrazine-2-carbohydrazide]",> 1000,> 1000

# Source: EP4660182A1, “NAV1.7- AND/OR NAV1.8-INHIBITING ARYL PYRIDINE COMPOUNDS, PROCESSES FOR THE PREPARATION THEREOF, COMPOSITIONS, USES, METHODS FOR TREATMENT USING SAME, AND KITS” (Eurofarma Laboratórios S.A., priority 2023, dated 2024)
